Experimental data taken from US9758491B2, “Molecules having pesticidal utility, and intermediates, compositions, and processes, related thereto” (priority 2015, dated 2017).

What was measured:
Type in all cases: in vivo
[1] = tested on: Beet Armyworm (Spodoptera exigua, LAPHEG); experiment: Bioassay on Beet Armyworm (BAW), 128-well diet tray assay; details: 168 h, 50 μg/cm^2 on artificial diet, second instar larvae, 25° C., five to seven days, average of eight wells, read-out: BAW rating, % Control (or Mortality)
Protocol: (§1) Certain molecules disclosed in this document were tested against BAW and CL using procedures described in the following examples. In the reporting of the results, the “BAW & CL Rating Table” was used (See Table Section).
Bioassays on BAW were conducted using a 128-well diet tray assay. One to five second instar BAW larvae were placed in each well (3 mL) of the diet tray that had been previously filled with 1 mL of artificial diet to which 50 μg/cm^2 of the test molecule (dissolved in 50 μL of 90:10 acetone-water mixture) had been applied (to each of eight wells) and then allowed to dry. Trays were covered with a clear self-adhesive cover, vented to allow gas exchange, and held at 25° C., 14:10 light-dark for five to seven days. Percent mortality was recorded for the larvae in each well; activity in the eight wells was then averaged. The results are indicated in the table entitled “Table ABC: Biological Results” (See Table Section).

[2] = tested on: Cabbage Looper (Trichoplusia ni, TRIPNI); experiment: Bioassay on Cabbage Looper (CL), 128-well diet tray assay; details: 168 h, 50 μg/cm^2 on artificial diet, second instar larvae, 25° C., five to seven days, average of eight wells, read-out: CL rating, % Control (or Mortality)
Protocol: as §1
Bioassays on CL were conducted using a 128-well diet tray assay. One to five second instar CL larvae were placed in each well (3 mL) of the diet tray that had been previously filled with 1 mL of artificial diet to which 50 μg/cm^2 of the test molecule (dissolved in 50 μL of 90:10 acetone-water mixture) had been applied (to each of eight wells) and then allowed to dry. Trays were covered with a clear self-adhesive cover, vented to allow gas exchange, and held at 25° C., 14:10 light-dark for five to seven days. Percent mortality was recorded for the larvae in each well; activity in the eight wells was then averaged. The results are indicated in the table entitled “Table ABC: Biological Results” (See Table Section).

[3] = tested on: Yellow Fever Mosquito (Aedes aegypti, AEDSAE); experiment: Bioassay on Yellow Fever Mosquito (YFM) larvae, 96-well plate; details: 4000 ppm DMSO master solution diluted, about 1 day-old larvae, room temperature, scored after 3 days
Protocol: Certain molecules disclosed in this document were tested against YFM using procedures described in the following paragraph. In the reporting of the results, the “YFM Rating Table” was used (See Table Section).
Master plates containing 400 μg of a molecule dissolved in 100 μL of dimethyl sulfoxide (DMSO) (equivalent to a 4000 ppm solution) are used. A master plate of assembled molecules contains 15 μL per well. To this plate, 135 μL of a 90:10 water/acetone mixture is added to each well. A robot (Biomek® NXP Laboratory Automation Workstation) is programmed to dispense 15 μL aspirations from the master plate into an empty 96-well shallow plate (“daughter” plate). There are 6 reps (“daughter” plates) created per master. The created “daughter” plates are then immediately infested with YFM larvae.
The day before plates are to be treated, mosquito eggs are placed in Millipore water containing liver powder to begin hatching (4 g into 400 mL). After the “daughter” plates are created using the robot, they are infested with 220 μL of the liver powder/larval mosquito mixture (about 1 day-old larvae). After plates are infested with mosquito larvae, a non-evaporative lid is used to cover the plate to reduce drying. Plates are held at room temperature for 3 days prior to grading. After 3 days, each well is observed and scored based on mortality. The results are indicated in the table entitled “Table ABC: Biological Results” (See Table Section).

`COc1cccc(N2CCN/C2=N\C(=O)Nc2ccc(-c3ncn(-c4ccc(OC(F)(F)F)cc4)n3)cc2)c1` [F20, (E)-1-(1-(3-Methoxyphenyl)imidazolidin-2-ylidene)-3-(4-(1-(4-(trifluoromethoxy)phenyl)-1H-1,2,4-triazol-3-yl)phenyl)urea] was tested, and the mortality at 50 µg/cm2 [1] was 50 to 100%, the mortality at 50 µg/cm2 [2] was 50 to 100% and the “YFM rating, % Control (or Mortality)” value [3] was “A (80-100)”.
`COc1ccc(N2CCN/C2=N\C(=O)Nc2ccc(-c3ncn(-c4ccc(OC(F)(F)F)cc4)n3)cc2)cc1` [F21, (E)-1-(1-(4-Methoxyphenyl)imidazolidin-2-ylidene)-3-(4-(1-(4-(trifluoromethoxy)phenyl)-1H-1,2,4-triazol-3-yl)phenyl)urea] was tested, and the mortality at 50 µg/cm2 [1] was 50 to 100%, the mortality at 50 µg/cm2 [2] was 50 to 100% and the “YFM rating, % Control (or Mortality)” value [3] was “A (80-100)”.
